{"source": "paper PMC4766710", "about": "(BMC Cancer, 2016)", "key": {"ABC": {"test_system": "ABC", "conditions": "monotherapy 100 mg bd, older formulation; 29 patients with ABC; cited from earlier work"}, "clinical": {"assay": "clinical", "conditions": "human, in vivo, 75 mg"}, "[1]": {"assay": "ABC-04 phase Ib trial: dose limiting toxicity, adverse events, compliance", "format": "in vivo, patients", "method": "Four dose levels were included in the protocol for potential evaluation; 75 mg bd, 50 mg bd, 75 mg once daily (od) and 50 mg od. The first dose level evaluated was 75 mg bd. Patients were recruited in cohorts of three. The number of patients experiencing a DLT during the first cycle of treatment in each cohort was used to decide the dose level at which to recruit the next cohort. If no patients experienced a DLT, then that dose level was the recommended dose. If one patient experienced a DLT, the cohort was to be expanded to six patients. If > 2 patients experienced DLT, then subsequent patients were to be entered into the next lower dose level. […]\nPatients were assessed prior to starting treatment and at regular intervals throughout treatment. […] All AEs occurring between the date of signing consent and 30 days after the last dose of any trial treatment were recorded. […] Disease status was assessed by computed tomography (CT) scan, with or without a liver magnetic resonance (MR) scan, prior to registration, after cycles 4 and 8 and then subsequently every 12 weeks until disease progression. Patients with measurable disease at baseline were assessed for objective response according to RECIST v1.1 [10]. For patients with non-measurable disease, objective response was not assessed and progressive disease was documented by the appearance of new lesions or by symptomatic deterioration. […]"}, "[2]": {"conditions": "in vivo, 75 mg"}, "[3]": {"test_system": "advanced biliary tract cancer", "assay": "ABC-04 phase Ib trial: objective response (RECIST v1.1), PFS, deaths", "format": "in vivo, patients", "conditions": "75 mg bd + CisGem", "method": "Patients were assessed prior to starting treatment and at regular intervals throughout treatment. […] All AEs occurring between the date of signing consent and 30 days after the last dose of any trial treatment were recorded. AEs were graded according to CTCAE v 4.03. Blood biochemistry and a full blood count with differential were carried out at the same time points as the physical examinations. […] In addition, prior to registration, an electrocardiogram and echocardiogram, and an ophthalmological examination were required. Disease status was assessed by computed tomography (CT) scan, with or without a liver magnetic resonance (MR) scan, prior to registration, after cycles 4 and 8 and then subsequently every 12 weeks until disease progression. Patients with measurable disease at baseline were assessed for objective response according to RECIST v1.1 [10]. For patients with non-measurable disease, objective response was not assessed and progressive disease was documented by the appearance of new lesions or by symptomatic deterioration.\nTumour responses were assessed according to RECIST version 1.1. The best response across all time points has been reported. For PFS and OS, the time to progression or death was measured from the date of registration. PFS and OS were estimated for the population by the Kaplan-Meier method."}, "[4]": {"conditions": "RECIST v1.1, listed as selumetinib"}}, "note": "Read-outs that look alike come from different tables or passages of the source."}
{"smiles": "Cn1cnc2c(F)c(Nc3ccc(Br)cc3Cl)c(C(=O)NOCCO)cc21", "note": "[Selumetinib]", "values": [{"measurement": "response rate", "setting": "ABC", "value": 12, "unit": "%"}, {"measurement": "AUC(0-inf)", "setting": "clinical", "value": 5650, "unit": "ng·h/mL"}, {"measurement": "Tmax", "setting": "clinical", "value": 1.55, "unit": "h"}, {"measurement": "deaths considered related to protocol treatment", "setting": "[1]; 75 mg bd + CisGem", "value": "None"}, {"measurement": "recommended dose of selumetinib when combined with CisGem", "setting": "[1]; dose de-escalation scheme, patients with ABC", "value": 75, "unit": "mg bd"}, {"measurement": "Cmax", "setting": "[2]; human", "value": 1331.33, "unit": "ng/mL"}, {"measurement": "Median time from documented best objective response until progression or death", "setting": "[3]", "value": 5.9, "unit": "months"}, {"measurement": "median time from documented best objective response until progression or death, best response SD", "setting": "[3]", "value": 3.1, "unit": "months"}, {"measurement": "median PFS", "setting": "[3]; IQR 5.2 to 13.7", "value": 6.4, "unit": "months"}, {"measurement": "PFS rate at 6 months", "setting": "[3]; Kaplan-Meier", "value": 67, "unit": "%"}, {"measurement": "PFS rate at 12 months", "setting": "[3]; Kaplan-Meier", "value": 33, "unit": "%"}, {"measurement": "Best objective response: Complete response", "setting": "[3]; RECIST v1.1", "value": 1, "unit": "N"}, {"measurement": "Best objective response: Partial response", "setting": "[3]; RECIST v1.1", "value": 1, "unit": "N"}, {"measurement": "Best objective response: Stable disease", "setting": "[3]; RECIST v1.1", "value": 6, "unit": "N"}, {"measurement": "Best objective response: Partial response", "setting": "[3]; [4]", "value": 3, "unit": "N"}, {"measurement": "Best objective response: Stable disease", "setting": "[3]; [4]", "value": 5, "unit": "N"}, {"measurement": "Best objective response: Not evaluable", "setting": "[3]; RECIST v1.1, total 13", "value": 5, "unit": "N"}, {"measurement": "patients who had died", "setting": "[3]; at the time of the final analysis", "value": 7, "unit": "patients"}]}
{"smiles": "O=C(NOCCO)c1cc2nc[nH]c2c(F)c1Nc1ccc(Br)cc1Cl", "note": "[N-desmethyl selumetinib]", "values": [{"measurement": "AUC(0-t)", "setting": "[2]; human", "value": 347.26, "unit": "ng·h/mL"}, {"measurement": "Cmax", "setting": "[2]; human", "value": 77.16, "unit": "ng/mL"}, {"measurement": "Tmax", "setting": "[2]; human", "value": 2.00, "unit": "h"}, {"measurement": "decrease of AUC(0-t) in the presence of CisGem", "setting": "[2]; human", "value": 40, "unit": "%"}, {"measurement": "decrease of AUC(0-∞) in the presence of CisGem", "setting": "[2]; human", "value": 40, "unit": "%"}, {"measurement": "decrease of Cmax in the presence of CisGem", "setting": "[2]; human", "value": 40, "unit": "%"}, {"measurement": "AUC(0-∞)", "setting": "[2]", "value": 452.88, "unit": "ng·h/mL"}]}
